# Experimental data as given in patent US9221746B2, “Homo- and hetero-polyamino-acid derivatives of fullerene C60, method for producing same, and pharmaceutical compositions based on said derivatives” (priority 2011, dated 2015).
# Marks after values point to notes of the source that are not given here.
# Columns and labels:
# [1] = test system: type 1 human immunodeficiency virus; assay: Antiviral activity on HIV-1 infected human cell model; format: cell-based; settings: for Cell survival rate, % / Number of cells × 10^3/mL / CPE/syncytia (+): HIV-1 infected cells; for CPE/syncytia (+): four-plus system
# [2] = test system: Herpes simplex virus, type 1, Lg strain; assay: Anti-herpetic activity in the Vero cell culture; format: cell-based; settings: for Optical density: MTT assay
# [3] = test system: A/IIV-Moscow/01/2009 (H1N1)swl influenza virus; assay: Reduction of influenza virus reproduction in MDCK cell culture (ELISA); format: cell-based; settings: for Percent reduction of influenza virus reproduction in MDCK cell culture relative to control, average values: average of the three experiments
# Method: The agent was diluted with DMSO (5 mg substance+0.5 mL DMSO), followed by addition of 4.5 mL MEM cell cultural medium to obtain in this way a stock solution with a concentration of 1.0 […].
# The antiviral activity was ascertained from the reduction of influenza virus reproduction in the MDCK cell culture, as recognized by ELISA.
# For this purpose, MDCK cells were grown on 96-well plates to obtain a complete monolayer, washed from the growth medium, and added with substances in a twofold concentration in 100 mcL MEM medium. Infection with the virus in a working dose ranging from 100 to 1000 TCD50 was carried out in two protocols: 2 hours following the insertion of the substances and simultaneously. The plates were incubated in a thermostat filled with CO2 for 24 hours at 37° C. Following the incubation, the medium was removed and cells were fixed by 80% acetone in PBS for 15 minutes and then well dried, and ELISA was performed by consecutive adsorption of specific reagents, namely, monoclonal antibodies, conjugate, and substrate (orthophenylenediamine). The degree of reaction was monitored by measuring optical density at 492 nm on a Biokom spectrophotometer. Each virus dilution was studied in three replicas, for which an average optical density (OD) value was calculated. Percent inhibition was determined as the quotient of the difference between the experimental OD and the OD of the cell control, divided by the difference between the OD of the virus control and the OD of the cell control, multiplied by 100%. The data gained in this way were used to determine the minimal concentration of the agent causing the 50.0% inhibition of viral reproduction (MIC50).
# The inhibition of A(H1N1) influenza virus replication was ascertained in three experiments with different multiplicities of infection.
# [4] = test system: Lewis carcinoma (3LL); assay: Transplantable Lewis carcinoma (3LL) in mice; format: in vivo
# Method: These studies were carried out at the Institute for Toxicology, St. Petersburg, 2006, according to “Guidelines for the Study of Antitumor Activity of Pharmacological Agents” (“Manual on Experimental (Preclinical) Study of New Pharmacological Agents,” Ministry of Public Health of the Russian Federation, Remedium, Moscow, 2000, pp. 319-325).
# The L1210 leukemia, breast adenocarcinoma Ca-755, and Lewis carcinoma (3LL) tumor cell strain were purchased from the Petrov Research Institute for Oncology, the Ministry of Public Health of the Russian Federation (St. Petersburg).
# C 57 BL/6J line male mice with transplanted 3LL cells. Mouse ages: 6 to 8 weeks; body weights: 18 to 24 g.
# The antitumor effect was ascertained through the following parameters: • ascite accumulation as animal body weight gain; • the lifetime of animals; and • tumor growth. The larger dimension of the tumor (length) and the smaller dimension normal thereto (width) were measured. The tumor volume was calculated, and the inhibition of tumor growth was calculated by a formula. The ascertainment criterion was the day when each individual tumor reached a volume of 500 mm^3.
substance,measurement,setting,value
Fullerene Poly(Aminocaproic Acid) of Formula C60(H3){NH(CH2)5COO—}3{NH3^+(CH2)5COOH}3 [Agent No. 1],"Cell survival rate, %",[1]; 0.5 mcg/mL,18%
same,Number of cells × 10^3/mL,[1]; 0.5 mcg/mL,33 × 10^3/mL
same,CPE/syncytia (+),[1]; 0.5 mcg/mL,4.0 (+)
same,"Cell survival rate, %",[1]; 1.0 mcg/mL,26%
same,Number of cells × 10^3/mL,[1]; 1.0 mcg/mL,495 × 10^3/mL
same,CPE/syncytia (+),[1]; 1.0 mcg/mL,4.0 (+)
same,"Cell survival rate, %",[1]; 5.0 mcg/mL,98%
same,Number of cells × 10^3/mL,[1]; 5.0 mcg/mL,633 × 10^3/mL
same,CPE/syncytia (+),[1]; 5.0 mcg/mL,0 (+)
same,"Cell survival rate, %",[1]; 10 mcg/mL,98%
same,Number of cells × 10^3/mL,[1]; 10 mcg/mL,600 × 10^3/mL
same,CPE/syncytia (+),[1]; 10 mcg/mL,0 (+)
same,EC50 (50% effective concentration),[1]; type 1 human immunodeficiency virus,0.9 µg/mL
same,protection of cells from the cytodestructive effect of the virus,"[2]; 100 TCD50, agent 60 minutes prior to infecting, all concentrations from 5.0 mcg/mL and higher",completely protects
same,protection of cell culture from the cytodestructive effect of the virus,"[2]; 1000 TCD50/0.2 mL, infected 60 minutes post inserting the agent",complete protection
same,Optical density,"[2]; 100 TCD50, 5.0 mcg/mL",1.110 ± 0.08
same,Optical density,"[2]; 100 TCD50, 10.0 mcg/mL",1.015 ± 0.07
same,Optical density,"[2]; 100 TCD50, 50.0 mcg/mL",1.153 ± 0.06
same,Optical density,"[2]; 100 TCD50, 100.0 mcg/mL",1.79 ± 0.05
same,Optical density,"[2]; 1000 TCD50, 5.0 mcg/mL",1.027 ± 0.04
same,Optical density,"[2]; 1000 TCD50, 10.0 mcg/mL",1.021 ± 0.04
same,Optical density,"[2]; 1000 TCD50, 50.0 mcg/mL",1.033 ± 0.03
same,Optical density,"[2]; 1000 TCD50, 100.0 mcg/mL",1.083 ± 0.01
same,Percent (%) reduction of influenza virus reproduction in MDCK cell culture relative to control,"[3]; 6.25 mcg/mL, 2 h prior to infection, 1st value of cell (experiments with different multiplicities of infection)",27.0%
same,Percent (%) reduction of influenza virus reproduction in MDCK cell culture relative to control,"[3]; 6.25 mcg/mL, 2 h prior to infection, 2nd value of cell",28.0%
same,Percent (%) reduction of influenza virus reproduction in MDCK cell culture relative to control,"[3]; 6.25 mcg/mL, 2 h prior to infection, 3rd value of cell",0%
same,"Percent reduction of influenza virus reproduction in MDCK cell culture relative to control, average values","[3]; 6.25 mcg/mL, 2 h prior to infection",18.0%
same,Percent (%) reduction of influenza virus reproduction in MDCK cell culture relative to control,"[3]; 6.25 mcg/mL, simultaneously with infection, 1st value of cell",18.0%
same,Percent (%) reduction of influenza virus reproduction in MDCK cell culture relative to control,"[3]; 6.25 mcg/mL, simultaneously with infection, 2nd value of cell",0%
same,Percent (%) reduction of influenza virus reproduction in MDCK cell culture relative to control,"[3]; 6.25 mcg/mL, simultaneously with infection, 3rd value of cell",0%
same,"Percent reduction of influenza virus reproduction in MDCK cell culture relative to control, average values","[3]; 6.25 mcg/mL, simultaneously with infection",6.0%
same,Percent (%) reduction of influenza virus reproduction in MDCK cell culture relative to control,"[3]; 12.5 mcg/mL, 2 h prior to infection, 1st value of cell",47.0%
same,Percent (%) reduction of influenza virus reproduction in MDCK cell culture relative to control,"[3]; 12.5 mcg/mL, 2 h prior to infection, 2nd value of cell",74.0%
same,Percent (%) reduction of influenza virus reproduction in MDCK cell culture relative to control,"[3]; 12.5 mcg/mL, 2 h prior to infection, 3rd value of cell",9.5%
same,"Percent reduction of influenza virus reproduction in MDCK cell culture relative to control, average values","[3]; 12.5 mcg/mL, 2 h prior to infection",44.0%
same,Percent (%) reduction of influenza virus reproduction in MDCK cell culture relative to control,"[3]; 12.5 mcg/mL, simultaneously with infection, 1st value of cell",39.0%
same,Percent (%) reduction of influenza virus reproduction in MDCK cell culture relative to control,"[3]; 12.5 mcg/mL, simultaneously with infection, 2nd value of cell",13.0%
same,Percent (%) reduction of influenza virus reproduction in MDCK cell culture relative to control,"[3]; 12.5 mcg/mL, simultaneously with infection, 3rd value of cell",0%
same,"Percent reduction of influenza virus reproduction in MDCK cell culture relative to control, average values","[3]; 12.5 mcg/mL, simultaneously with infection",26%
same,Percent (%) reduction of influenza virus reproduction in MDCK cell culture relative to control,"[3]; 25.0 mcg/mL, 2 h prior to infection, 1st value of cell",41.0%
same,Percent (%) reduction of influenza virus reproduction in MDCK cell culture relative to control,"[3]; 25.0 mcg/mL, 2 h prior to infection, 2nd value of cell",79.0%
same,Percent (%) reduction of influenza virus reproduction in MDCK cell culture relative to control,"[3]; 25.0 mcg/mL, 2 h prior to infection, 3rd value of cell",12%
same,"Percent reduction of influenza virus reproduction in MDCK cell culture relative to control, average values","[3]; 25.0 mcg/mL, 2 h prior to infection",44.0%
same,Percent (%) reduction of influenza virus reproduction in MDCK cell culture relative to control,"[3]; 25.0 mcg/mL, simultaneously with infection, 1st value of cell",40.0%
same,Percent (%) reduction of influenza virus reproduction in MDCK cell culture relative to control,"[3]; 25.0 mcg/mL, simultaneously with infection, 2nd value of cell",0%
same,"Percent reduction of influenza virus reproduction in MDCK cell culture relative to control, average values","[3]; 25.0 mcg/mL, simultaneously with infection",20.0%
same,Percent (%) reduction of influenza virus reproduction in MDCK cell culture relative to control,"[3]; 50.0 mcg/mL, 2 h prior to infection, 1st value of cell",28.0%
same,Percent (%) reduction of influenza virus reproduction in MDCK cell culture relative to control,"[3]; 50.0 mcg/mL, 2 h prior to infection, 2nd value of cell",72.0%
same,Percent (%) reduction of influenza virus reproduction in MDCK cell culture relative to control,"[3]; 50.0 mcg/mL, 2 h prior to infection, 3rd value of cell",31.0%
same,"Percent reduction of influenza virus reproduction in MDCK cell culture relative to control, average values","[3]; 50.0 mcg/mL, 2 h prior to infection",44.0%
same,Percent (%) reduction of influenza virus reproduction in MDCK cell culture relative to control,"[3]; 50.0 mcg/mL, simultaneously with infection, 1st value of cell",33.0%
same,Percent (%) reduction of influenza virus reproduction in MDCK cell culture relative to control,"[3]; 50.0 mcg/mL, simultaneously with infection, 2nd value of cell",10.0%
same,"Percent reduction of influenza virus reproduction in MDCK cell culture relative to control, average values","[3]; 50.0 mcg/mL, simultaneously with infection",22.0%
same,Percent (%) reduction of influenza virus reproduction in MDCK cell culture relative to control,"[3]; 100.0 mcg/mL, 2 h prior to infection, 1st value of cell",4.0%
same,Percent (%) reduction of influenza virus reproduction in MDCK cell culture relative to control,"[3]; 100.0 mcg/mL, 2 h prior to infection, 2nd value of cell",0%
same,Percent (%) reduction of influenza virus reproduction in MDCK cell culture relative to control,"[3]; 100.0 mcg/mL, 2 h prior to infection, 3rd value of cell",20.0%
same,"Percent reduction of influenza virus reproduction in MDCK cell culture relative to control, average values","[3]; 100.0 mcg/mL, 2 h prior to infection",8%
same,Percent (%) reduction of influenza virus reproduction in MDCK cell culture relative to control,"[3]; 100.0 mcg/mL, simultaneously with infection, 1st value of cell",29.0%
same,Percent (%) reduction of influenza virus reproduction in MDCK cell culture relative to control,"[3]; 100.0 mcg/mL, simultaneously with infection, 2nd value of cell",28.0%
same,"Percent reduction of influenza virus reproduction in MDCK cell culture relative to control, average values","[3]; 100.0 mcg/mL, simultaneously with infection",29.0%
same,reproduction inhibitory activity in the MDCK cell culture,[3]; different dilutions of the agent,high reproduction inhibitory activity
same,Day when the tumor reaches a volume of 500 mm³,[4]; 100 mg/kg,21.3 ± 1.21 days
same,"Lifetime, M ± m",[4]; 100 mg/kg,55.92 ± 0.98 days
same,day post transplantation when the first tumors were observed,[4]; 100 mg/kg,7 days
same,"Number of large (>3 mm) metastases in lungs, M ± m",[4]; 100 mg/kg (n = 12),5.8 ± 1.91
same,"Number of metastases in lungs, M ± m",[4]; 100 mg/kg (n = 12),53.5 ± 11.23
same,"Weight of lungs, mg M + m",[4]; 100 mg/kg (n = 12),491.9 ± 63.72 mg
same,percent inhibition (average tumor volume) compared to the control group,"[4]; 100 mg/kg, day 10",71.77%
same,percent inhibition (average tumor volume) compared to the control group,"[4]; 100 mg/kg, day 17",58.5%
same,Day when the tumor reaches a volume of 500 mm³,"[4]; 100 mg/kg, versus control",27.3%*
same,"Lifetime, Percent increase","[4]; 100 mg/kg, versus control",70.42%*
same,Day when the tumor reaches a volume of 500 mm³,[4]; 250 mg/kg,20.5 ± 1.20 days
same,"Lifetime, M ± m",[4]; 250 mg/kg,56.38 ± 0.68 days
same,day post transplantation when the first tumors appeared,[4]; 250 mg/kg,8 days
same,"Number of large (>3 mm) metastases in lungs, M ± m",[4]; 250 mg/kg (n = 13),5.7 ± 1.54
same,"Number of metastases in lungs, M ± m",[4]; 250 mg/kg (n = 13),55.8 ± 11.60
same,"Weight of lungs, mg M + m",[4]; 250 mg/kg (n = 13),505.4 ± 68.82 mg
same,percent inhibition (average tumor volume) compared to the control group,"[4]; 250 mg/kg, day 10",84.37%
same,percent inhibition (average tumor volume) compared to the control group,"[4]; 250 mg/kg, day 17",54.2%
same,Day when the tumor reaches a volume of 500 mm³,"[4]; 250 mg/kg, versus control",22.9%*
same,"Lifetime, Percent increase","[4]; 250 mg/kg, versus control",71.85%*
same,increase of the average lifetime against the control group,[4]; both doses,approximately 70%
